Measurements taken from paper PMC8624133, “10th Trends in Medical Mycology Held on 8 to 11 October 2021, Aberdeen, Scotland, Organized by the European Confederation of Medical Mycology (ECMM)” (Journal of Fungi, 2021).
Values after ≈ are worked out from the molar mass of the structure shown. Values joined by “and” are separate entries in the source; they are usually repeats but may differ in a detail not shown here. Identical values can stand only once. Residues, ends and D or L forms follow the SMILES beside them. *: point of attachment. βNA = c1ccc2cc(N*)ccc2c1

Assays:
C. albicans = test: Neutrophil control of hyphal growth (swarming); format: cell-based, Candida albicans; conditions: neutrophils of SOT and SCT recipients, ex vivo
Protocol: Methods and Materials: Twenty-one SOT, 19 SCT and 23 healthy control patients (HC) were identified and consented at primary care/outpatient transplant clinics. Transplant recipients were enrolled at a time period two to four months post-transplant. Following consent and peripheral blood collection, neutrophils were freshly isolated and co-incubated with C. albicans and the percent remaining live yeast was measured using a viability dye compared to a standard control to determine fungal elimination by neutrophils. Growth inhibition of C. albicans was also quantified by neutrophil swarming to yeast spotted onto glass slides, assessed by live cell imaging with or without G-CSF. Effect of soluble factors on neutrophils function was determined by incubation of healthy neutrophils with SOT and SCT serum and measuring ability to control C. albicans.

[1] = system: invasive fungal diseases (IFDs); conditions: 41 patients; ref published case reports, PubMed and Embase, 1990–2020; cited from earlier work
Source text: Among the 41 patients with IFDs, were those with invasive candidiasis and invasive mould diseases, including those caused by Aspergillus spp., Mucorales, and Fusarium spp. Sixteen (39%) had baseline neutropenia and 27 (66%) were considered to be refractory to standard therapy prior to GM-CSF administration. Among the 41 patients with IFDs, complete responses were reported in 35 (85%) patients and partial response in 1 patient, with 5 patients having no or unclear response. || Previously published case reports on the use of GM-CSF for adjunctive treatment of IFDs are summarized in Table 2. […]

A. fumigatus conidia = test: Conidia killing by epithelial cells with sulfide donor; format: cell-based, Aspergillus fumigatus
Source text: Materials & Methods: We deleted A. fumigatus genes to identify the enzymes primarily responsible for persulfidation as confirmed by fluorescence proteomic and microscopic analyses. We then used enzymatic assays, killing experiments and murine models to characterize the relevance of persulfidation for A. fumigatus virulence. We performed a genetic association study of the frequencies of a Single Nucleotide Polymorphism (SNP) in the human gene with the probability of suffering Invasive pulmonary aspergillosis (IPA) in hematopoietic stem cell transplant (HSCT) recipients. Next, we investigated the antifungal capacities of host cells using our engineered A549 cell line and alveolar macrophages and neutrophils derived from knock-out mice. Subsequenlty we investigated the interdependency of fungal and human persulfidation levels using Western-blot and fluorescence microscopy. Finally, we performed killing assays in the presence of a sulfide donor to potentiate host persulfidation.

[2] = system: Scedosporium and Lomentospora species; test: Antifungal susceptibility tests; format: cell-based
Protocol: (§1) Materials & Methods: Antifungal susceptibility tests and biofilm assay were performed to evaluate the activity of miltefosine against Scedosporium and Lomentospora species. Electron microscopy and fluorescent dyes, such as 2′,7′ –dichlorofluorescein diacetate and JC-1, were used to check the effects on cell integrity, oxidative stress and mitochondrial membrane potential, respectively. Miltefosine effects on fungal membrane were evaluated by fillipin staining, the susceptibility to membrane and cell wall stressors and the analysis of cell membrane permeability. Sinergystic assay was performed to check miltefosine interaction with current antifungal agents used in clinical settings.

[3] = system: Scedosporium and Lomentospora species; test: Biofilm assay; format: cell-based
Protocol: as §1

[4] = system: dermatophyte standard strains and clinical isolates; test: Broth microdilution MIC; format: cell-based, Trichophyton and Microsporum spp.; conditions: all tested strains
Protocol: (§2) Materials & Methods: The minimum inhibitory concentration (MIC) of honokiol was assessed by broth microdilution method against standard strains (Trichophyton rubrum ATCC 28188, Trichophyton mentagrophytes ATCC 9533), and clinical isolates (T. rubrum, T. ajelloi, Microsporum canis and M. gypseum). Evaluation of honokiol effect on ergosterol biosynthesis was assessed by high performance liquid chromatography. Checkerboard microtiter method was used to identify synergistic combinations of honokiol with terbinafine against Trichophyton rubrum ATCC 28188. The combinatorial effect was evaluated by calculating the fractional inhibitory concentration index (FICI).

T. rubrum = test: Ergosterol content by HPLC; format: cell-based, Trichophyton rubrum; conditions: control 13.56 ± 0.35 mg%
Protocol: as §2

[5] = system: Trichophyton rubrum ATCC 28188; test: Checkerboard microtiter method with terbinafine; format: cell-based; conditions: honokiol + terbinafine, additive interactions
Protocol: as §2

Candida albicans = test: CLSI M27-A3/M27-S4 MIC and MFC; format: cell-based
Protocol: (§3) Methods & Materials: To evaluate the antifungal effect of each combination of nystatin and morencidine-like peptide, the protocol presented in CLSI M27-A3 and CLSI M27-S4 was used and the minimum inhibitory concentration was determined.

Candida glabrata = test: CLSI M27-A3/M27-S4 MIC and MFC; format: cell-based
Protocol: as §3

Candida tropicalis = test: CLSI M27-A3/M27-S4 MIC and MFC; format: cell-based
Protocol: as §3

McLDM-F5-CPR = test: microbe, parasite or virus in culture; format: cell-based, Saccharomyces cerevisiae AD2Δgal; conditions: Saccharomyces cerevisiae, read-out: mean MIC
[6] = Triazole drug levels in ABPA patients with asthma; format: in vivo, human; conditions: 452 patients, Oct 2009 to March 2021
Source text: Materials & Methods: This was a retrospective single-centre cohort study evaluating longitudinal outcomes in non-cystic fibrosis (CF) ABPA patients with underlying chronic lung disease (asthma), and description of treatment approaches. Statistical Analysis System (SAS) programming was used for data integration from multiple hospital electronic systems, for patient identification and data analysis. Criteria for inclusion were patients with a background of asthma, serum Total IgE >1000 IU/mL and a positive Aspergillus IgE, with or without a positive culture for A. fumigatus from a respiratory sample. Data collected included demographics, lung function severity, disease activity serological markers (Aspergillus IgE, Aspergillus IgG, Total IgE) and triazole levels. In this study the impact of fungal therapy on disease outcomes was assessed.

[7] = system: C. auris Isolate B and Isolate C; test: microbe, parasite or virus in culture; format: cell-based, Candida auris
[8] = system: azole-resistant A. fumigatus SS clinical strains; test: EUCAST E.DEF 9.3.2; format: cell-based; conditions: Aspergillus fumigatus
[9] = system: A. fumigatus veterinary isolates; test: EUCAST microdilution of veterinary isolates; format: cell-based, Aspergillus fumigatus
Protocol: All have been confirmed as A. fumigatus by MALDI-TOF MS using the BCCM/IHEM database. The antifungal susceptibility was evaluated using the microdilution EUCAST method. Cyp51A gene sequencing has been performed on all resistant isolates.

ISV blood levels, HPLC = format: in vivo, human; conditions: for samples with level <1 mg/L: ICU
Protocol: Materials & Methods: ISV levels are routinely tested in our centre HPLC method. The lowest limit of quantification was set at 0.15 mg/L. ISV blood levels obtained between January 2017 and May 2021 were analysed and compared between those obtained from patients in ICU vs. others. Chi-square/Fisher’s exact test and Mann-Whitney test were used for categorical and continuous variables, respectively. Levels of ISV <1 mg/L were defined as low.

A. fumigatus complex = conditions: share of isolates, n = 59, EUCAST clinical breakpoints
A. flavus complex = conditions: n = 6, EUCAST clinical breakpoints
A. nidulans complex = conditions: all isolates, n = 2
[10] = system: drug transporters of M. circinelloides and R. microsporus; test: Rhodamine 6G efflux following glucose injection; format: cell-based, Mucor circinelloides, Rhizopus microsporus
Protocol: (§4) Methods: The inhibitory effect of PaβN on transporters activity was assessed by measuring the efflux of their fluorescent substrate rhodamine 6G following glucose injection. The interaction of PaβN and posaconazole was assessed by the chequerboard dilution method in order to determine the fractional inhibitory concentration index (FICI).

[11] = system: M. circinelloides and R. microsporus; test: Chequerboard dilution with posaconazole; format: cell-based, Mucor circinelloides, Rhizopus microsporus; conditions: PaβN + posaconazole; five ATCC or clinical isolates
Protocol: as §4

In the case of “Granulocyte-macrophage colony stimulating factor [GM-CSF]”, the “neutrophil ability to control hyphal growth” value (C. albicans) is given as “partially restored” and the “complete responses, n (%)” value [1] is given as 35 (85%).
With `C1COCCN1.COc1ccc(P(=S)(S)N2CCOCC2)cc1` (centres unmarked) [GY4137] the “conidia killing capacity of epithelial cells” value (A. fumigatus conidia) was “enhanced”.
For `CCCCCCCCCCCCCCCCOP(=O)([O-])OCC[N+](C)(C)C` [Miltefosine, miltefosine], the inhibitory concentration [2] was 2 to 4 µg/mL and the biofilm formation [3] was “reduced biofilm formation”.
In the case of `C=CCc1ccc(O)c(-c2ccc(O)c(CC=C)c2)c1` [honokiol, Honokiol], the MIC [4] is reported as 8 to 16 µg/mL, the ergosterol content (T. rubrum) is reported as 9.52 ± 0.43 mg% and the FICI [5] is reported as 0.53–0.75.
In the case of `C[C@@H]1[C@H](O)[C@@H](C)/C=C/C=C/CC/C=C/C=C/C=C/C=C/C(O[C@H]2O[C@H](C)[C@@H](O)[C@H](N)[C@@H]2O)CC2O[C@](O)(CC(O)C(O)CCC(O)CC(O)CC(O)CC(=O)O[C@H]1C)CC(O)C2C(=O)O` (some centres unmarked) [nystatin], the “MIC (maximum inhibitory effect)” value (Candida albicans) is reported as 1.25 µg/mL, the “MIC (maximum inhibitory effect)” value (Candida glabrata) is reported as 1.25 µg/mL and the “MIC (maximum inhibitory effect)” value (Candida tropicalis) is reported as 0.625 µg/mL.
With `C[C@@H](c1nc(-c2ccc(C#N)cc2)cs1)[C@](O)(Cn1cncn1)c1cc(F)ccc1F` [isavuconazole] the MIC (McLDM-F5-CPR) was 4 µg/mL (≈ 9.14 µM), the “median trough drug level” value [6] was 3.29 mg/L and the “change of MIC” value [7] was “largely unchanged”. For the same molecule, the “reduction in MIC” value ([7]; Isolate C with ERG11 WT in place of K143R) was 2 fold, the MIC ([8]; strain from pleural fluid of an ICU patient, no mutations in cyp51A) was 1 µg/mL (≈ 2.29 µM) and the MIC ([8]; two strains from a cystic fibrosis patient, TR34/L98H) was 8 µg/mL (≈ 18.3 µM). The “isolates in the area of technical uncertainty (ATU)” value [9] was 27%, the resistance of isolates [9] was “No resistance” and the median blood level (ISV blood levels, HPLC; 265 samples, 63 patients, first two months) was 3.3 mg/L. For the same molecule, the blood level range (ISV blood levels, HPLC; ICU patients) was 0 to 8480 ng/mL, the median blood level (ISV blood levels, HPLC; ICU patients) was 1.95 mg/L and the “samples with level <1 mg/L” value (ISV blood levels, HPLC; during renal replacement therapy, 7/24) was 29.2%. For the same molecule, the “samples with level <1 mg/L” value (ISV blood levels, HPLC; not receiving RRT, 7/46) was 15.2%, the blood level range (ISV blood levels, HPLC; all samples) was 0 to 14520 ng/mL and the blood level range (ISV blood levels, HPLC; non-ICU patients) was 0 to 14520 ng/mL. For the same molecule, the median blood level (ISV blood levels, HPLC; non-ICU patients) was 4.1 mg/L, the Resistance (A. fumigatus complex) was 5% and the isolates resistant (A. flavus complex) was 17%. For the same molecule, the resistance of isolates (A. nidulans complex) was “resistant”.
In the case of `NC(N)=NCCC[C@H](NC(=O)[C@@H](N)Cc1ccccc1)C(=O)Nc1ccc2ccccc2c1` [PaβN, Phenylalanine-Arginine Beta-Naphthylamide] (H-Phe-Arg-βNA), the “efflux of rhodamine 6G” value [10] is reported as “decrease the efflux of rhodamine 6G” and the FICI [11] is reported as 0.5 and 0.5 to 0.6.
